Source: article PMC6522510 (Nature Communications, 2019)

Key:
[1] = test system: CMS; experiment: cells; design: species or system AML cell lines (8); Secondary HTS, 10-point dose-response in triplicate, Cell Titer Glo viability, four-parameter fit EC50; conditions: 72 h, read-out: CMS
[2] = test system: CMK; experiment: cells; design: species or system AML cell lines (8); Secondary HTS, 10-point dose-response in triplicate, Cell Titer Glo viability, four-parameter fit EC50; conditions: Homo sapiens, CMK, 72 h, read-out: CMK
[3] = test system: M07e; experiment: cells; design: species or system AML cell lines (8); Secondary HTS, 10-point dose-response in triplicate, Cell Titer Glo viability, four-parameter fit EC50; conditions: M-07e, 72 h, read-out: M07e
[4] = test system: MOLM-13; experiment: cells; design: species or system AML cell lines (8); Secondary HTS, 10-point dose-response in triplicate, Cell Titer Glo viability, four-parameter fit EC50; conditions: Homo sapiens, MOLM-13, 72 h, read-out: MOLM-13
[5] = test system: MV4-11; experiment: cells; design: species or system AML cell lines (8); Secondary HTS, 10-point dose-response in triplicate, Cell Titer Glo viability, four-parameter fit EC50; conditions: Homo sapiens, MV4-11, 72 h, read-out: MV4-11
[6] = test system: U937; experiment: cells; design: species or system AML cell lines (8); Secondary HTS, 10-point dose-response in triplicate, Cell Titer Glo viability, four-parameter fit EC50; conditions: Homo sapiens, U-937, 72 h, read-out: U937
[7] = test system: ML-2; experiment: cells; design: species or system AML cell lines (8); Secondary HTS, 10-point dose-response in triplicate, Cell Titer Glo viability, four-parameter fit EC50; conditions: Homo sapiens, ML-2, 72 h, read-out: ML-2
[8] = test system: CHRF288-11; experiment: cells; design: species or system AML cell lines (8); Secondary HTS, 10-point dose-response in triplicate, Cell Titer Glo viability, four-parameter fit EC50; conditions: 72 h, read-out: CHRF288-11
[9] = test system: MV4-11; experiment: Secondary dose-response HTS, Cell Titer Glo; type: cell-based, human; conditions: Homo sapiens; secondary high-throughput screen; MV4-11; read-out: average effective concentration, MV4-11
[10] = test system: MOLM-13; experiment: Secondary dose-response HTS, Cell Titer Glo; type: cell-based, human; conditions: Homo sapiens; secondary high-throughput screen; MOLM-13; read-out: average effective concentration, MOLM-13
[11] = test system: CHRF288-11; experiment: Secondary dose-response HTS, Cell Titer Glo; type: cell-based, human; conditions: Homo sapiens, HTS; secondary high-throughput screen; CHRF288-11; read-out: average effective concentration, CHRF288-11
[12] = test system: U937; experiment: Secondary dose-response HTS, Cell Titer Glo; type: cell-based, human; conditions: Homo sapiens, U-937; secondary high-throughput screen; U937; read-out: average effective concentration, U937
[13] = test system: CMK; experiment: Secondary dose-response HTS, Cell Titer Glo; type: cell-based, human; conditions: Homo sapiens; secondary high-throughput screen; CMK; read-out: average effective concentration, CMK

| Compound | EC50 [4] [µM] | EC50 [5] [µM] | EC50 [6] [µM] | EC50 [9] [µM] | EC50 [10] [µM] | EC50 [12] [µM] | EC50 [1] [µM] | EC50 [2] [µM] | EC50 [3] [µM] | EC50 [7] [µM] | EC50 [8] [µM] | EC50 [11] [µM] | EC50 [13] [µM] |
| --- | --- | --- | --- | --- | --- | --- | --- | --- | --- | --- | --- | --- | --- |
| OC[C@H]1NC[C@H](O)[C@@H](O)[C@H]1O | > 10 | > 10 | > 10 | – | – | – | > 10 | > 10 | > 10 | > 10 | > 10 | – | – |
| CC1=C(CC(=O)O)c2cc(F)ccc2/C1=C\c1ccc([S+](C)[O-])cc1 (stereo not drawn) | > 10 | > 10 | > 10 | – | – | – | > 10 | > 10 | > 10 | > 10 | > 10 | – | – |
| C=C1C(=O)O[C@@H](CCC)[C@@H]1C(=O)O (racemic) [SJ000784258, BUTYROLACTONE 3] | 1.8 | > 10 | > 10 | – | – | – | > 10 | > 10 | > 10 | > 10 | > 10 | – | – |
| CCC1(c2ccc(N)cc2)CCC(=O)NC1=O (stereo not drawn) [AMINOGLUTETHIMIDE] | > 10 | > 10 | > 10 | – | – | – | > 10 | > 10 | > 10 | > 10 | > 10 | – | – |
| S=C(NCc1ccc2c(c1)OCO2)N1CCN(c2ncnc3c2oc2ccccc23)CC1 [AMUVATINIB] | > 10 | > 10 | > 10 | – | – | – | > 10 | > 10 | > 10 | > 10 | > 10 | – | – |
| CC(C)(C#N)c1cc(Cn2cncn2)cc(C(C)(C)C#N)c1 [ANASTROZOLE] | > 10 | > 10 | > 10 | – | – | – | > 10 | > 10 | > 10 | > 10 | > 10 | – | – |
| CC(C)c1c(C(=O)Nc2ccccc2)c(-c2ccccc2)c(-c2ccc(F)cc2)n1CC[C@@H](O)C[C@@H](O)CC(=O)O [ATORVASTATIN] | – | – | – | > 10 | > 10 | > 10 | > 10 | > 10 | > 10 | > 10 | – | > 10 | – |
| Cc1cc([C@@H](C)Nc2ccccc2C(=O)O)c2nc(N3CCOCC3)cc(=O)n2c1 [AZD6482] | > 10 | > 10 | > 10 | – | – | – | > 10 | > 10 | > 10 | > 10 | > 10 | – | – |
| C[C@H]1C[C@H]2[C@@H]3CCC4=CC(=O)C=C[C@]4(C)[C@@]3(F)[C@@H](O)C[C@]2(C)[C@@]1(O)C(=O)CO [BETAMETHASONE] | > 10 | > 10 | > 10 | – | – | – | > 10 | > 10 | > 10 | > 10 | > 10 | – | – |
| C=C(c1ccc(C(=O)O)cc1)c1cc2c(cc1C)C(C)(C)CCC2(C)C [BEXAROTENE] | > 10 | – | > 10 | 2.1 | – | – | > 10 | – | > 10 | > 10 | > 10 | – | 8.1 |
| O=c1[nH]c(=O)n([C@H]2C[C@H](O)[C@@H](CO)O2)cc1/C=C/Br [BRIVUDINE] | > 10 | > 10 | > 10 | – | – | – | > 10 | > 10 | > 10 | > 10 | > 10 | – | – |
| CCc1cc2c(cc1N1CCC(N3CCOCC3)CC1)C(C)(C)c1[nH]c3cc(C#N)ccc3c1C2=O [CH5424802] | > 10 | > 10 | > 10 | – | – | – | > 10 | > 10 | > 10 | > 10 | > 10 | – | – |
| Nc1nc(OCc2ccccc2)c2nc[nH]c2n1 [Compound O6-BENZYLGUANINE] | > 10 | > 10 | > 10 | – | – | – | > 10 | > 10 | > 10 | > 10 | > 10 | – | – |
| CC(C)(C)c1nc(-c2cccc(NS(=O)(=O)c3c(F)cccc3F)c2F)c(-c2ccnc(N)n2)s1 [DABRAFENIB] | > 10 | > 10 | > 10 | – | – | – | > 10 | > 10 | > 10 | > 10 | > 10 | – | – |
| Cn1cc(C2=C(c3cn(C4CCN(Cc5ccccn5)CC4)c4ccccc34)C(=O)NC2=O)c2ccccc21 [ENZASTAURIN] | > 10 | > 10 | > 10 | – | – | – | > 10 | > 10 | > 10 | > 10 | > 10 | – | – |
| Cc1nc(C(=O)NCC(=O)O)c(O)c2ccc(Oc3ccccc3)cc12 [FG-4592] | – | > 10 | > 10 | – | 0.002 | – | > 10 | > 10 | > 10 | > 10 | > 10 | – | – |
| CC(C(=O)O)c1ccc(-c2ccccc2)c(F)c1 (stereo not drawn) [FLURBIPROFEN] | > 10 | > 10 | > 10 | – | – | – | > 10 | > 10 | > 10 | > 10 | > 10 | – | – |
| CC[C@H](C)C(=O)O[C@H]1C[C@@H](C)C=C2C=C[C@H](C)[C@H](CC[C@@H]3C[C@@H](O)CC(=O)O3)[C@H]21 [LOVASTATIN] | – | > 10 | > 10 | – | > 10 | – | > 10 | > 10 | > 10 | > 10 | – | 6.3 | – |
| CC(C(=O)Nc1cccc(/N=C/c2c(O)ccc3ccccc23)c1)c1ccccc1 (stereo not drawn) [SALERMIDE] | – | > 10 | – | – | 7 | 6.6 | > 10 | > 10 | > 10 | > 10 | > 10 | – | – |

Now from value to compound, other results behind:

| EC50 [4] [µM] | EC50 [5] [µM] | EC50 [6] [µM] | EC50 [9] [µM] | EC50 [10] [µM] | EC50 [12] [µM] | Compound | EC50 [1] [µM] | EC50 [2] [µM] | EC50 [3] [µM] | EC50 [7] [µM] | EC50 [8] [µM] | EC50 [11] [µM] | EC50 [13] [µM] |
| --- | --- | --- | --- | --- | --- | --- | --- | --- | --- | --- | --- | --- | --- |
| 0.0727 | 0.046 | 0.134 | – | – | – | COc1ccc(C[C@H](NC(=O)[C@H](C)NC(=O)CN2CCOCC2)C(=O)N[C@@H](Cc2ccccc2)C(=O)C2(C)CO2)cc1 (stereo in doubt) [SJ000834147, ONX-0914] | 0.11 | 0.23 | 0.0789 | 0.0426 | 0.169 | – | – |
| 5.9 | > 10 | 8.2 | – | – | – | C=C1CCCC2(C)C[C@H]3OC(=O)C(=C)[C@H]3CC12 (stereo in doubt) [SJ000834159, ISOHELENIN] | 5.4 | 5.2 | > 10 | 6.6 | 6.7 | – | – |
| > 10 | – | – | > 10 | – | > 10 | Cc1ccc(NC(=O)c2ccc(CN3CCN(C)CC3)cc2)cc1Nc1nc(-c2cccnc2)cs1 [MASITINIB] | > 10 | > 10 | > 10 | > 10 | > 10 | – | – |
| – | > 10 | > 10 | – | 8.9 | – | CC[C@H](C)C(=O)O[C@H]1CCC=C2C=C[C@H](C)[C@H](CC[C@@H]3C[C@@H](O)CC(=O)O3)[C@H]21 [MEVASTATIN] | > 10 | > 10 | > 10 | > 10 | – | 6.6 | – |
| – | – | > 10 | > 10 | 4.5 | – | CCc1nc(N)nc(N)c1-c1ccc(Cl)cc1 [PYRIMETHAMINE] | > 10 | > 10 | > 10 | > 10 | > 10 | – | – |
| – | – | > 10 | 0.34 | 1.5 | – | CNC(=O)c1cc(Oc2ccc(NC(=O)Nc3ccc(Cl)c(C(F)(F)F)c3)c(F)c2)ccn1 [REGORAFENIB] | > 10 | > 10 | > 10 | > 10 | > 10 | – | – |
| – | – | > 10 | > 10 | 8.9 | – | Oc1ccc(/C=C/c2cc(O)cc(O)c2)cc1 [RESVERATROL] | > 10 | > 10 | > 10 | > 10 | > 10 | – | – |
| – | > 10 | > 10 | – | 0.077 | – | CCCC(CCC)C(=O)O [VALPROATE SODIUM] | > 10 | > 10 | > 10 | > 10 | > 10 | – | – |
